Tests used:
LacCer synthase (GalT-2) = target: T1, LacCer synthase (GalT-2) (Rattus norvegicus, UniProt O88419); experiment: Measurement of [14C]LacCer synthesis in primary astrocytes (HPTLC); type: cell-based
T1 construct: using cell lysates derived from cells stimulated with LPS/IFNγ; endogenous in cells; host or cells: rat primary astrocytes
T1 sequence (O88419 1-382): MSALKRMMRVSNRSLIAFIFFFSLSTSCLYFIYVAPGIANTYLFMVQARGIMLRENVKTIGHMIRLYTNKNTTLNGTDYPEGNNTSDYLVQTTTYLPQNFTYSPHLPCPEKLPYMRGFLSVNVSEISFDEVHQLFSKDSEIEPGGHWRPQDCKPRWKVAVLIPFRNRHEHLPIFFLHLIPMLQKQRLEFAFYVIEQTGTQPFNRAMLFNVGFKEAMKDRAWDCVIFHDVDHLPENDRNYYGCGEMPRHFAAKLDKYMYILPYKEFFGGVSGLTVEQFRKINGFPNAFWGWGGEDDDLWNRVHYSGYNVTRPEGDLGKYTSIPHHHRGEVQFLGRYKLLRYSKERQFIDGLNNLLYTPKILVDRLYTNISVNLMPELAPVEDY
Description: Cultured cells were incubated in growth medium containing [^14C]galactose (5 μCi/ml) for 24 h as described previously. The medium was removed, and the cell monolayer was washed with sterile PBS. After the stimulation with LPS/IFNγ (1 μg/ml; 10 U/ml) for various durations, cells were then harvested and washed with ice cold PBS and lysed by sonication. 200 μg of protein was used for extraction of lipids using Chloroform:Methanol:HCl (100:100:1). The organic phase was dried under nitrogen. Glycosphingolipids were resolved by high performance thin layer chromatography using chloroform/methanol/0.25% KCl (70:30:4, v/v/v) as the developing solvent. The gel area corresponding to LacCer was scraped, and radioactivity was measured employing “liquiscint” (NEN Life Science Products) as a scintillating fluid.

NF-κB = experiment: κB-repeat luciferase reporter gene assay; type: cell-based, rat
Description: Dominant negative and constitutively active ras expression vector (pCMVrasN17 and pCMVrasv12) and κB repeat luciferase reporter construct (pNF-κB-Luc) were purchased from BD Biosciences. 3×10^5 cells/well were cultured in 6-well plates for one day before the transfection. Transfection was performed with plasmid concentration constant (2.5 μg/transfection) and 8 μl of Fugene transfection reagent (Roche Molecular Biochemicals). 24 h after transfection, the cells were placed in serum free media for overnight. Following appropriate treatment, the cells were washed with phosphate buffered saline (PBS), scraped, and then resuspended with 100 μl of lysis buffer (40 mM of Tricine pH 7.8, 50 mM of NaCl, 2 mM of EDTA, 1 mM of MgSO4, 5 mM of dithiothreitol, and 1% of Triton X-100). After incubation at room temperature for 15 min with occasional vortexing, the samples were centrifuged. The luciferase and β-galactosidase activities were measured by using luciferase assay kit (Stratagene, CA) and β-gal assay kit (Invitrogen, CA) respectively. The emitted light and optical absorbance was measured using Spectra Max/Gemini XG (Molecular Device, CA) and SpectraMax 190 (Molecular Device).

small GTPase Ras = experiment: Quantification of Ras activation (GST-Raf-1 RBD pull-down) in primary astrocytes; type: cell-based, rat
Description: After stimulation, primary astrocytes in 6-well plates were washed with ice cold PBS and lysed in membrane lysis buffer (MLB; 0.5 ml of 25 mM HEPES, pH 7.5, 150 mM NaCl, 1% Igepal CA-630, 0.25% sodium deoxycholate, 10% glycerol, 10 mM MgCl2, 1 mM EDTA, 25 mM NaF, 1 mM of sodium orthovanadate, and EDTA free Complete™ protease inhibitor cocktail). After centrifugation (5,000×g) at 4° C. for 5 min, supernatant was used for Ras activation assay. One hundred μg of supernatant was used for binding with agarose conjugated Ras-binding domain (RBD) of Raf-1 which was expressed in BL21 (Invitrogen), Escherichia coli strain, transformed by pGEX-2T-GST-RBD in the presence of 0.1 mM of IPTG as described previously (Herrmann et al., 1995). The binding reaction was performed at 4° C. for 30 min in MLB. Following washing with MLB three times, Ras-RBD complex were denatured by adding of 2×SDS sample buffer. Ras protein was identified by western blot analysis with Ras antibodies from Upstate Biotechnology.

Row | Reversal of PDMP effect on κB-luciferase activity (NF-κB; exogenous LacCer) | Reversal of LY-mediated inhibition of TNFα-mediated Ras activation (small GTPase Ras; LY 30 μM plus LacCer) | Reversal of PDMP-mediated reduction of LPS/IFNγ-mediated Ras activation (small GTPase Ras; LacCer plus PDMP 50 μM, LPS/IFNγ 5 min) | Reversal of PDMP-mediated inhibition of TNFα-induced Ras activation (small GTPase Ras; PDMP 25 μM plus LacCer) | Reversal of DMS-mediated inhibition of Ras activation (small GTPase Ras; exogenous lipid) | Molecule | [14C]LacCer biosynthesis following LPS/IFNγ-stimulation (LacCer synthase (GalT-2)) | [14C]LacCer synthesis upon TNFα-stimulation (LacCer synthase (GalT-2); TNFα 1 ng/ml) | LPS/IFNγ-induced κB-luciferase activity (NF-κB; PDMP 0.5 h before LPS/IFNγ) | LPS/IFNγ-mediated activation of Ras (small GTPase Ras; PDMP 50 μM 0.5 h, LPS/IFNγ 5 min) | TNFα-induced Ras activation (small GTPase Ras; pretreated 0.5 h, TNFα)
1 | – | – | – | – | – | AS GalT-2 oligonucleotides: 20-mer antisense oligonucleotide 5′-CGCTTGAGCGCAGACATCTT-3′, SEQ ID NO:1, against rat lactosylceramide synthase (GalT-2) (antisense CGCTTGAGCGCAGACATCTT; chemistry not given here) | diminished synthesis | diminished synthesis | – | – | –
2 | – | – | – | – | – | CCCCCCCCCC(=O)NC(CN1CCOCC1)C(O)c1ccccc1.Cl [PDMP, D-threo-1-Phenyl-2-decanoylamino-3-morpholino-1-propanol.HCl] | inhibited this increase | – | abolished | reduced | attenuated
3 | effectively bypassed | bypassed | fully reversed | fully reversed | reversed | Lactosylceramide [LacCer] | – | – | – | – | –
